pIC50: −log10 of the molar value.
What was measured:
MCF7R [1] = test: Compound was evaluated for multi-drug resistance (MDR) reversal at 1 uM concentration in MCF7-R cell line when co-administered with Paclitaxel; assay type: functional, Homo sapiens
MCF7R [2] = test: Cytotoxicity was evaluated at 1 uM concentration in MCF7-R cell line when co-administered with Paclitaxel; assay type: functional, cell-based; conditions: Homo sapiens
MDA-MB-435 [3] = test: Compound was evaluated for multi-drug resistance (MDR) reversal at 1 uM concentration in MDA 435/LCC6-MDR cell line when co-administered with Paclitaxel; assay type: functional, Homo sapiens
MDA-MB-435 [4] = test: Cytotoxicity was evaluated at 1 uM concentration in MDA 435/LCC6-MDR cell line when co-administered with Paclitaxel; assay type: functional, cell-based; conditions: Homo sapiens
MCF7R [5] = test: Cytotoxicity was evaluated at 3 uM concentration in MCF7-R cell line when co-administered with Paclitaxel; assay type: functional, cell-based; conditions: Homo sapiens
MCF7R [6] = test: Compound was evaluated for multi-drug resistance (MDR) reversal at 3 uM concentration in MCF7-R cell line when co-administered with Paclitaxel; assay type: functional, Homo sapiens
MDA-MB-435 [7] = test: Cytotoxicity was evaluated at 0.1 uM concentration in MDA 435/LCC6-MDR cell line when co-administered with Paclitaxel; assay type: functional, cell-based; conditions: Homo sapiens
MDA-MB-435 [8] = test: Compound was evaluated for multi-drug resistance (MDR) reversal at 0.1 uM concentration in MDA 435/LCC6-MDR cell line when co-administered with Paclitaxel; assay type: functional, Homo sapiens
MDA-MB-435 [9] = test: Compound was evaluated for multi-drug resistance (MDR) reversal at 3 uM concentration in MDA 435/LCC6-MDR cell line when co-administered with Paclitaxel; assay type: functional, Homo sapiens
MDA-MB-435 [10] = test: Cytotoxicity was evaluated at 3 uM concentration in MDA 435/LCC6-MDR cell line when co-administered with Paclitaxel; assay type: functional, cell-based; conditions: Homo sapiens
MCF7R [11] = test: Compound was evaluated for multi-drug resistance (MDR) reversal in MCF7-R cell line; assay type: functional, Homo sapiens
MDA-MB-435 [12] = test: Compound was evaluated for multi-drug resistance (MDR) reversal in MDA 435/LCC6-MDR cell line; assay type: functional, Homo sapiens
MCF7R [13] = test: Cytotoxicity was evaluated in MCF7-R cell line; assay type: functional, cell-based; conditions: Homo sapiens
MDA-MB-435 [14] = test: Cytotoxicity was evaluated in MDA 435/LCC6-MDR cell line; assay type: functional, cell-based; conditions: Homo sapiens

SMILES: CC(=O)O[C@@]12CO[C@@H]1C[C@H](OC(=O)CCc1ccc(C(=O)c3ccccc3)cc1)[C@@]1(C)C(=O)[C@H](OC(=O)CCc3ccc(C(=O)c4ccccc4)cc3)C3=C(C)[C@@H](O)C[C@@](O)([C@@H](OC(=O)c4ccccc4)[C@H]21)C3(C)C
- Reduction (MCF7R [1]): 99.7%
- pIC50 (MCF7R [2]): 8.59

SMILES: CC(=O)O[C@H]1C(=O)[C@]2(C)[C@@H](OC(=O)/C=C/c3ccc4ccccc4c3)C[C@H]3OC[C@@]3(OC(C)=O)[C@H]2[C@H](OC(=O)c2ccccc2)[C@]2(O)C[C@H](O)C(C)=C1C2(C)C
- Reduction (MDA-MB-435 [3]): 50%
- Reduction (MCF7R [1]): 96%
- pIC50 (MCF7R [2]): 7.44
- pIC50 (MDA-MB-435 [4]): 6.37

SMILES: CC(=O)O[C@@]12CO[C@@H]1C[C@H](OC(=O)OCC(Cl)(Cl)Cl)[C@@]1(C)C(=O)[C@H](OC(=O)OCC(Cl)(Cl)Cl)C3=C(C)[C@@H](OC(=O)/C=C/c4ccc5ccccc5c4)C[C@@](O)([C@@H](OC(=O)c4ccccc4)[C@H]21)C3(C)C
- pIC50 (MCF7R [5]): 6.12
- Reduction (MCF7R [6]): 12%

SMILES: CC(=O)O[C@H]1C(=O)[C@]2(C)[C@@H](OC(=O)CCc3ccc4ccccc4c3)C[C@H]3OC[C@@]3(OC(C)=O)[C@H]2[C@H](OC(=O)c2ccccc2)[C@]2(O)C[C@H](O)C(C)=C1C2(C)C
- Reduction (MCF7R [1]): 96%
- pIC50 (MCF7R [2]): 7.48

SMILES: CC(=O)O[C@H]1C(=O)[C@]2(C)[C@@H](OC(=O)CCC3CCC4CCCCC4C3)C[C@H]3OC[C@@]3(OC(C)=O)[C@H]2[C@H](OC(=O)C2CCCCC2)[C@]2(O)C[C@H](O)C(C)=C1C2(C)C (stereo partly specified)
- Reduction (MCF7R [1]): 81%
- pIC50 (MCF7R [2]): 6.80

SMILES: CC(=O)O[C@H]1C(=O)[C@]2(C)[C@@H](OC(=O)/C=C/c3ccc4ccccc4c3)C[C@H]3OC[C@@]3(OC(C)=O)[C@H]2[C@H](OC(=O)c2ccccc2)[C@]2(O)C[C@H](OC(C)=O)C(C)=C1C2(C)C
- pIC50 (MDA-MB-435 [7]): 6.47
- Reduction (MDA-MB-435 [8]): 60%
- pIC50 (MCF7R [5]): 8.24
- Reduction (MCF7R [6]): 99.3%

SMILES: CC(=O)O[C@H]1C(=O)[C@]2(C)[C@@H](OC(=O)/C=C/c3ccc(C(=O)c4ccccc4)cc3)C[C@H]3OC[C@@]3(OC(C)=O)[C@H]2[C@H](OC(=O)c2ccccc2)[C@]2(O)C[C@H](OC(C)=O)C(C)=C1C2(C)C
- Reduction (MDA-MB-435 [9]): 92%
- pIC50 (MDA-MB-435 [7]): 7.28
- Reduction (MDA-MB-435 [8]): 94%
- pIC50 (MDA-MB-435 [10]): 7.16
- pIC50 (MCF7R [5]): 8.59

SMILES: CC(=O)O[C@@]12CO[C@@H]1C[C@H](O)[C@@]1(C)C(=O)[C@H](O)C3=C(C)[C@@H](OC(=O)/C=C/c4ccc(C(=O)c5ccccc5)cc4)C[C@@](O)([C@@H](OC(=O)c4ccccc4)[C@H]21)C3(C)C
- Reduction (MCF7R [1]): 0%
- pIC50 (MCF7R [2]): 6.07

SMILES: CC(=O)O[C@H]1C(=O)[C@]2(C)[C@@H](OC(=O)c3ccc4ccccc4c3)C[C@H]3OC[C@@]3(OC(C)=O)[C@H]2[C@H](OC(=O)c2ccccc2)[C@]2(O)C[C@H](O)C(C)=C1C2(C)C
- pIC50 (MCF7R [2]): 7.68

SMILES: CC(=O)O[C@H]1C(=O)[C@]2(C)[C@@H](OC(C)=O)C[C@H]3OC[C@@]3(OC(C)=O)[C@H]2[C@H](OC(=O)/C=C/c2ccc(C(=O)c3ccccc3)cc2)[C@]2(O)C[C@H](OC(C)=O)C(C)=C1C2(C)C
- pIC50 (MDA-MB-435 [7]): 6.20
- Reduction (MDA-MB-435 [8]): 27%

SMILES: CC(=O)O[C@@]12CO[C@@H]1C[C@H](O)[C@@]1(C)C(=O)[C@H](OC(=O)/C=C/c3ccc(C(=O)c4ccccc4)cc3)C3=C(C)[C@@H](O)C[C@@](O)([C@@H](OC(=O)c4ccccc4)[C@H]21)C3(C)C
- Reduction (MCF7R [1]): 95%
- pIC50 (MCF7R [2]): 7.38

SMILES: CC(=O)O[C@@]12CO[C@@H]1C[C@H](OC(=O)OCC(Cl)(Cl)Cl)[C@@]1(C)C(=O)[C@H](OC(=O)OCC(Cl)(Cl)Cl)C3=C(C)[C@@H](OC(=O)CCc4ccc5ccccc5c4)C[C@@](O)([C@@H](OC(=O)c4ccccc4)[C@H]21)C3(C)C
- pIC50 (MCF7R [5]): 6.07
- Reduction (MCF7R [6]): 0%

SMILES: CC(=O)O[C@@]12CO[C@@H]1C[C@H](OC(=O)/C=C/c1ccc3ccccc3c1)[C@@]1(C)C(=O)[C@H](OC(=O)/C=C/c3ccc4ccccc4c3)C3=C(C)[C@@H](O)C[C@@](O)([C@@H](OC(=O)c4ccccc4)[C@H]21)C3(C)C
- Reduction (MCF7R [1]): 45%
- pIC50 (MCF7R [2]): 6.33

SMILES: CC(=O)O[C@@]12CO[C@@H]1C[C@H](OC(=O)OCC(Cl)(Cl)Cl)[C@@]1(C)C(=O)[C@H](OC(=O)OCC(Cl)(Cl)Cl)C3=C(C)[C@@H](OC(=O)/C=C/c4ccc(C(=O)c5ccccc5)cc4)C[C@@](O)([C@@H](OC(=O)c4ccccc4)[C@H]21)C3(C)C
- pIC50 (MCF7R [5]): 6.77
- Reduction (MCF7R [6]): 80%

SMILES: CC(=O)O[C@@]12CO[C@@H]1C[C@H](OC(=O)CCc1ccc(C(=O)c3ccccc3)cc1)[C@@]1(C)C(=O)[C@H](OC(=O)CCc3ccc(C(=O)c4ccccc4)cc3)C3=C(C)[C@@H](OC(=O)CCc4ccc(C(=O)c5ccccc5)cc4)C[C@@](O)([C@@H](OC(=O)c4ccccc4)[C@H]21)C3(C)C
- pIC50 (MDA-MB-435 [7]): 6.07
- Reduction (MDA-MB-435 [8]): 0%

SMILES: CC(=O)O[C@@]12CO[C@@H]1C[C@H](OC(=O)/C=C/c1ccc3ccccc3c1)[C@@]1(C)C(=O)[C@H](OC(=O)CCc3ccc(C(=O)c4ccccc4)cc3)C3=C(C)[C@@H](O)C[C@@](O)([C@@H](OC(=O)c4ccccc4)[C@H]21)C3(C)C
- Reduction (MCF7R [1]): 0%
- pIC50 (MCF7R [2]): 6.07

SMILES: CC(=O)O[C@H]1C(=O)[C@]2(C)[C@@H](OC(C)=O)C[C@H]3OC[C@@]3(OC(C)=O)[C@H]2[C@H](OC(=O)CCc2ccc3ccccc3c2)[C@]2(O)C[C@H](OC(C)=O)C(C)=C1C2(C)C
- pIC50 (MDA-MB-435 [7]): 6.19
- Reduction (MDA-MB-435 [8]): 24%

SMILES: CC(=O)O[C@H]1C(=O)[C@]2(C)[C@@H](OC(=O)CNC(=O)c3ccc4ccccc4c3)C[C@H]3OC[C@@]3(OC(C)=O)[C@H]2[C@H](OC(=O)c2ccccc2)[C@]2(O)C[C@H](O)C(C)=C1C2(C)C
- Reduction (MCF7R [1]): 42%
- pIC50 (MCF7R [2]): 6.30

SMILES: CC(=O)O[C@@]12CO[C@@H]1C[C@H](O)[C@@]1(C)C(=O)[C@H](O)C3=C(C)[C@@H](OC(=O)/C=C/c4ccc5ccccc5c4)C[C@@](O)([C@@H](OC(=O)c4ccccc4)[C@H]21)C3(C)C
- Reduction (MCF7R [1]): 88%
- pIC50 (MCF7R [2]): 7.00

SMILES: CC(=O)O[C@H]1C(=O)[C@]2(C)[C@@H](OC(=O)/C=C/c3ccc(C(=O)c4ccccc4)cc3)C[C@H]3OC[C@@]3(OC(C)=O)[C@H]2[C@H](OC(=O)c2ccccc2)[C@]2(O)C[C@H](O)C(C)=C1C2(C)C
- pIC50 (MCF7R [5]): 8.80

SMILES: CC(=O)O[C@@]12CO[C@@H]1C[C@H](O)[C@@]1(C)C(=O)[C@H](O)C3=C(C)[C@@H](OC(=O)CCc4ccc5ccccc5c4)C[C@@](O)([C@@H](OC(=O)c4ccccc4)[C@H]21)C3(C)C
- Reduction (MCF7R [1]): 37%
- pIC50 (MCF7R [2]): 6.27

SMILES: CC(=O)O[C@H]1C(=O)[C@@]2(C)[C@H]([C@H](OC(=O)c3ccccc3)[C@]3(O)C[C@H](OC(=O)[C@H](O)[C@@H](NC(=O)c4ccccc4)c4ccccc4)C(C)=C1C3(C)C)[C@]1(OC(C)=O)CO[C@@H]1C[C@@H]2O [PACLITAXEL]
- Reduction (MCF7R [11]): 0%
- Reduction (MDA-MB-435 [12]): 0%
- pIC50 (MCF7R [13]): 6.07
- pIC50 (MDA-MB-435 [14]): 6.07

Reference: ChEMBL document CHEMBL1130620, “New taxanes as highly efficient reversal agents for multidrug resistance in cancer cells” (Bioorg Med Chem Lett, 1998)
